Measurements published in patent US20250027863A1, “METHOD OF CHARACTERIZATION OF RELEASE OF POORLY SOLUBLE MATERIALS AND UPTAKE IN COMPLEX LIQUIDS” (Zennova LLC, priority 2021, published 2025).

Experiment: MCRR in vitro release test of ibuprofen solution (flow medium) to external medium
Assay type: physicochemical

## CC(C)Cc1ccc(C(C)C(=O)O)cc1 (centres unmarked) [ibuprofen]
Exposure time in seconds, 15-300 seconds
  slope of ln (1-fraction released) vs. the exposure time: −0.0102
Ibuprofen solution in 25 mM phosphate buffer as flow medium, exposure times up to 300 seconds (test time 291.3 minutes), 20° C, triplicate
  percent released: ~100%
